Measured values as given in DBAASP.
Converted amounts (≈) assume the structure as drawn. One block for each compound: values may come before it.

Assays:
Assay in all cases: ≥ marks a high value that may be exact or a test limit, other limits are often not marked, values filed in µg/mL are converted to µM
[1] = system: Corynebacterium xerosis C875
[2] = system: Escherichia coli DC2
[3] = system: Escherichia coli UB1005
[4] = system: Staphylococcus epidermidis C621
[5] = system: Escherichia coli K12 MG1655
[6] = system: Escherichia coli ATCC 25922
[7] = system: Pseudomonas aeruginosa PAO1
[8] = system: Salmonella enterica serovar Typhimurium
[9] = system: Staphylococcus aureus ATCC 25923
[10] = system: Acinetobacter baumannii
[11] = system: Enterococcus faecium
[12] = system: Klebsiella pneumoniae
[13] = system: Pseudomonas aeruginosa
[14] = system: Staphylococcus aureus ATCC 43300
[15] = system: Streptococcus pneumoniae
[16] = system: Pseudomonas aeruginosa ATCC 27853
[17] = system: Bacillus subtilis
[18] = system: Candida albicans ATCC 2002
[19] = system: Candida albicans
[20] = system: Escherichia coli
[21] = system: Shigella dysenteriae
[22] = system: Staphylococcus aureus ATCC 2592
[23] = system: Staphylococcus aureus
[24] = system: Bacillus cereus
[25] = system: Bacillus subtilis ATCC 6633

SMILES: C[C@H](NC(=O)[C@H](C)NC(=O)[C@H](C)NC(=O)[C@H](CO)NC(=O)[C@H](C)NC(=O)[C@H](C)NC(=O)[C@H](C)NC(=O)[C@H](CCCCN)NC(=O)[C@@H](N)CCCCN)C(=O)N[C@@H](C)C(=O)N[C@@H](C)C(=O)N[C@@H](CO)C(=O)N[C@@H](C)C(=O)N[C@@H](C)C(=O)N[C@@H](Cc1c[nH]c2ccccc12)C(=O)N[C@@H](C)C(=O)N[C@@H](C)C(=O)N[C@@H](CO)C(=O)N[C@@H](C)C(=O)N[C@@H](C)C(=O)N[C@@H](C)C(=O)N[C@@H](CCCCN)C(=O)N[C@@H](CCCCN)C(=O)N[C@@H](CCCCN)C(=O)N[C@@H](CCCCN)C(N)=O [KKAAASAAAAASAAWAASAAAKKKK]
- MIC [1]: ≥ 64 µM
- MIC [2]: ≥ 64 µM
- MIC [3]: ≥ 64 µM
- MIC [4]: ≥ 64 µM

SMILES: CC(C)[C@H](NC(=O)[C@H](C)NC(=O)[C@H](C)NC(=O)[C@H](C)NC(=O)[C@H](CCCCN)NC(=O)[C@@H](N)CCCCN)C(=O)N[C@@H](C)C(=O)N[C@@H](C)C(=O)N[C@@H](C)C(=O)N[C@@H](C)C(=O)N[C@@H](C)C(=O)N[C@H](C(=O)N[C@@H](C)C(=O)N[C@@H](C)C(=O)N[C@@H](Cc1c[nH]c2ccccc12)C(=O)N[C@@H](C)C(=O)N[C@@H](C)C(=O)N[C@H](C(=O)N[C@@H](C)C(=O)N[C@@H](C)C(=O)N[C@@H](C)C(=O)N[C@@H](CCCCN)C(=O)N[C@@H](CCCCN)C(=O)N[C@@H](CCCCN)C(=O)N[C@@H](CCCCN)C(N)=O)C(C)C)C(C)C [KKAAAVAAAAAVAAWAAVAAAKKKK]
- MIC [1]: 0.5 µM (≈ 1.17 µg/mL)
- MIC [2]: ≥ 32 µM
- MIC [3]: ≥ 32 µM
- MIC [4]: ≥ 32 µM

SMILES: CC[C@H](C)[C@H](NC(=O)[C@H](CCCN=C(N)N)NC(=O)[C@@H](NC(=O)[C@H](CCCN=C(N)N)NC(=O)[C@H](Cc1c[nH]c2ccccc12)NC(=O)[C@H](CCC(N)=O)NC(=O)[C@@H](N)C(C)C)[C@@H](C)CC)C(=O)N[C@@H](C)C(=O)N[C@H](C(=O)N[C@H](C(=O)N[C@@H](CCCN=C(N)N)C(=O)N[C@@H](CCCCN)C(=O)O)[C@@H](C)CC)C(C)C [VQWRIRIAVIRK]
- MIC [6]: 10.4 µM (≈ 16 µg/mL)
- MIC [7]: 20.8 µM (≈ 32 µg/mL)
- MIC [8]: 10.4 µM (≈ 16 µg/mL)
- MIC [9]: 10.4 µM (≈ 16 µg/mL)

SMILES: CC[C@H](C)[C@H](NC(=O)CNC(=O)[C@H](Cc1cnc[nH]1)NC(=O)CNC(=O)CN)C(=O)N[C@@H](CCCN=C(N)N)C(=O)N[C@@H](CCCN=C(N)N)C(=O)N[C@H](C(=O)N[C@H](C(=O)N[C@@H](CCCN=C(N)N)C(=O)N[C@@H](CCCCN)C(=O)N[C@H](C(=O)N[C@H](C(=O)N[C@@H](Cc1cnc[nH]1)C(=O)N[C@H](C(=O)N[C@H](C(=O)N[C@@H](CCCCN)C(=O)N[C@@H](CCCCN)C(N)=O)[C@@H](C)CC)[C@@H](C)CC)[C@@H](C)CC)[C@@H](C)CC)[C@@H](C)CC)[C@@H](C)CC [GGHGIRRIIRKIIHIIKK]
- MIC [10]: 2.7 µM (≈ 5.69 µg/mL)
- MIC [11]: 16 µM (≈ 33.7 µg/mL)
- MIC [6]: > 16 µM
- MIC [12]: 16 µM (≈ 33.7 µg/mL)
- MIC [13]: > 16 µM
- MIC [14]: 16 µM (≈ 33.7 µg/mL)
- MIC [15]: 16 µM (≈ 33.7 µg/mL)

SMILES: CC[C@H](C)[C@H](NC(=O)[C@H](CCCN=C(N)N)NC(=O)[C@H](Cc1c[nH]c2ccccc12)NC(=O)[C@H](CCC(N)=O)NC(=O)[C@@H](N)CCCCN)C(=O)N[C@@H](CCCN=C(N)N)C(=O)N[C@H](C(=O)N[C@@H](CS)C(=O)N[C@H](C(=O)N[C@H](C(=O)N[C@@H](CCCN=C(N)N)C(=O)N[C@@H](C)C(=O)O)[C@@H](C)CC)C(C)C)C(C)C [KQWRIRVCVIRA]
- MIC [6]: 20.9 µM (≈ 32 µg/mL)
- MIC [7]: 41.9 µM (≈ 64 µg/mL)
- MIC [8]: 20.9 µM (≈ 32 µg/mL)
- MIC [9]: 20.9 µM (≈ 32 µg/mL)

SMILES: CC[C@H](C)[C@H](NC(=O)CNC(=O)[C@H](CO)NC(=O)[C@H](CC(C)C)NC(=O)[C@H](CC(C)C)NC(=O)CN)C(=O)N[C@@H](CC(C)C)C(=O)NCC(=O)N[C@@H](C)C(=O)NCC(=O)N[C@@H](CCCCN)C(=O)N[C@@H](Cc1cnc[nH]1)C(=O)N[C@H](C(=O)N[C@H](C(=O)N[C@H]1CSSC[C@@H](C(=O)O)NC(=O)[C@H](CC(C)C)NC(=O)CNC(=O)[C@H](CO)NC(=O)[C@H](CC(C)C)NC(=O)CNC1=O)C(C)C)[C@@H](C)CC [GLLSGILGAGKHIVCGLSGLC]
- MIC [17]: 4.76 µM (≈ 9.36 µg/mL)
- MIC [18]: 3.81 µM (≈ 7.49 µg/mL)
- MIC [19]: 4.76 µM (≈ 9.36 µg/mL)
- MIC [6]: 2.54 µM (≈ 5 µg/mL)
- MIC [20]: > 50.8 µM
- MIC [21]: 1.27 µM (≈ 2.5 µg/mL)
- MIC [22]: 1.27 µM (≈ 2.5 µg/mL)
- MIC [23]: 38.1 µM (≈ 74.9 µg/mL)

SMILES: CC[C@H](C)[C@H](NC(=O)CN)C(=O)N[C@@H](CC(C)C)C(=O)N[C@@H](CC(=O)O)C(=O)N1CCC[C@H]1C(=O)N[C@H](C(=O)N[C@@H](CCCCN)C(=O)N[C@@H](C)C(=O)N[C@@H](Cc1ccccc1)C(=O)N[C@@H](C)C(=O)N[C@@H](CCCCN)C(=O)N[C@@H](C)C(=O)N[C@@H](C)C(=O)NCC(N)=O)[C@@H](C)CC [GILDPIKAFAKAAG]
- MIC [24]: 16 µM (≈ 22 µg/mL)
- MIC [25]: 8.02 µM (≈ 11 µg/mL)
- MIC [18]: ≥ 32.1 µM
- MIC [6]: 16 µM (≈ 22 µg/mL)
- MIC [13]: 8.02 µM (≈ 11 µg/mL)
- MIC [21]: 4.01 µM (≈ 5.5 µg/mL)
- MIC [22]: 4.01 µM (≈ 5.5 µg/mL)

Continued, values first:

- MIC [1]: 8 µM (≈ 20.1 µg/mL)
- MIC [2]: ≥ 32 µM
- MIC [3]: ≥ 64 µM
- MIC [4]: ≥ 64 µM
SMILES: C[C@H](NC(=O)[C@H](C)NC(=O)[C@H](C)NC(=O)[C@H](CCCN=C(N)N)NC(=O)[C@H](C)NC(=O)[C@H](C)NC(=O)[C@H](C)NC(=O)[C@H](CCCCN)NC(=O)[C@@H](N)CCCCN)C(=O)N[C@@H](C)C(=O)N[C@@H](C)C(=O)N[C@@H](CCCN=C(N)N)C(=O)N[C@@H](C)C(=O)N[C@@H](C)C(=O)N[C@@H](Cc1c[nH]c2ccccc12)C(=O)N[C@@H](C)C(=O)N[C@@H](C)C(=O)N[C@@H](CCCN=C(N)N)C(=O)N[C@@H](C)C(=O)N[C@@H](C)C(=O)N[C@@H](C)C(=O)N[C@@H](CCCCN)C(=O)N[C@@H](CCCCN)C(=O)N[C@@H](CCCCN)C(=O)N[C@@H](CCCCN)C(N)=O [KKAAARAAAAARAAWAARAAAKKKK]

- MIC [5]: ≥ 58.6 µM
SMILES: CC[C@H](C)[C@H](NC(=O)[C@H](CC(=O)O)NC(=O)[C@H](Cc1c[nH]c2ccccc12)NC(=O)[C@H](CO)NC(=O)[C@H](CCCN=C(N)N)NC(=O)[C@@H](N)CCCCN)C(=O)N[C@H](C(=O)N[C@@H](CCCCN)C(=O)N[C@@H](CCCCN)C(=O)N[C@@H](Cc1ccc(O)cc1)C(=O)N[C@H](C(=O)NCC(=O)N[C@H](C(=O)N[C@H](C(=O)N[C@H](C(=O)NCC(=O)N[C@H](C(=O)N[C@H](C(=O)N[C@@H](Cc1cnc[nH]1)C(=O)O)[C@@H](C)CC)[C@@H](C)O)C(C)C)C(C)C)C(C)C)C(C)C)C(C)C [KRSWDIVKKYVGVVVGTIH]

- MIC [1]: 0.5 µM (≈ 1 µg/mL)
- MIC [6]: 4 µM (≈ 8.01 µg/mL)
- MIC [2]: 0.5 µM (≈ 1 µg/mL)
- MIC [3]: 1 µM (≈ 2 µg/mL)
- MIC [16]: 8 µM (≈ 16 µg/mL)
- MIC [4]: 4 µM (≈ 8.01 µg/mL)
SMILES: C[C@H](NC(=O)[C@H](C)NC(=O)[C@H](Cc1ccccc1)NC(=O)[C@H](C)NC(=O)[C@H](C)NC(=O)[C@H](Cc1c[nH]c2ccccc12)NC(=O)[C@H](C)NC(=O)[C@H](C)NC(=O)[C@H](Cc1ccccc1)NC(=O)[C@H](C)NC(=O)[C@H](C)NC(=O)[C@H](CCCN=C(N)N)NC(=O)[C@H](CCCN=C(N)N)NC(=O)[C@H](CCCN=C(N)N)NC(=O)[C@H](CCCN=C(N)N)NC(=O)[C@H](CCCN=C(N)N)NC(=O)[C@@H](N)CCCN=C(N)N)C(N)=O [RRRRRRAAFAAWAAFAA]

- MIC [1]: 2 µM (≈ 4.5 µg/mL)
- MIC [2]: ≥ 64 µM
- MIC [3]: ≥ 64 µM
- MIC [4]: ≥ 64 µM
SMILES: C[C@H](NC(=O)[C@H](C)NC(=O)[C@H](C)NC(=O)[C@H](C)NC(=O)[C@H](C)NC(=O)[C@H](C)NC(=O)[C@H](C)NC(=O)[C@H](CCCCN)NC(=O)[C@@H](N)CCCCN)C(=O)N[C@@H](C)C(=O)N[C@@H](C)C(=O)N[C@@H](C)C(=O)N[C@@H](C)C(=O)N[C@@H](C)C(=O)N[C@@H](Cc1c[nH]c2ccccc12)C(=O)N[C@@H](C)C(=O)N[C@@H](C)C(=O)N[C@@H](C)C(=O)N[C@@H](C)C(=O)N[C@@H](C)C(=O)N[C@@H](C)C(=O)N[C@@H](CCCCN)C(=O)N[C@@H](CCCCN)C(=O)N[C@@H](CCCCN)C(=O)N[C@@H](CCCCN)C(N)=O [KKAAAAAAAAAAAAWAAAAAAKKKK]
